Results on 3 molecules are retold here after US6943185B2, “Use of 2-methyl-thiazolidine-2,4-dicarboxylic acid and/or physiologically compatible salts thereof for producing a medicament for treating cancers” (Trommsdorff GmbH & Co. KG, priority 2000, dated 2005).

For series [1] the following is noted: cited from earlier work.
For series [2] the following is noted: pulmonary cancer patients treated with epirubicin and simultaneously NAC; cited from earlier work.
A further series concerns animal tumor models. Put plainly: Animal tumor models (skin papillomas, mammary adenocarcinomas, tracheal cancer, pulmonary adenocarcinomas, colon carcinomas, bladder cancer). The series is classed as in vivo. Particulars: several animal tumor models in mouse, rat, hamster. As for the experimental part:
These studies were conducted in several animal tumor models. Test systems used were the mouse, the rat, and the hamster. The objects of study included skin papillomas, mammary adenocarcinomas, tracheal cancer, pulmonary adenocarcinomas as well as colon carcinomas and bladder cancer.

Series [3] relates to reduced glutathione (GSH) in the hepatic tissue. Put plainly: Effect of 2-MTDC on reduced glutathione (GSH) in the hepatic tissue in mice. The series is classed as in vivo. Particulars: mouse liver; for Glutathione (GSH), % of the reference value: reference 0.9% NaCl.
The mark [4] stands for this setting: 2-MTDC 1.2 mmol/kg intraperitoneally, 8 hours after injection.
[5] abbreviates: 2-MTDC 2.4 mmol/kg intraperitoneally, 4 hours after injection.

For the molecule `CC1NC(C(=O)O)CS1` (stereo not shown), the “Stability under physiological conditions” value in series [1] was “spontaneously decomposes into its components under physiological conditions”.

`CC(=O)N[C@@H](CS)C(=O)O` [N-acetylcysteine]: in series [2], the “Effect on undesirable cardiotoxic effects of epirubicin” value is listed as “undesirable cardiotoxic effects of epirubicin could be prevented”.

For `CC1(C(=O)O)NC(C(=O)O)CS1` (stereo not shown) [2-MTDC, 2-methyl-thiazolidine-2,4-dicarboxylic acid], the “Effect on the advance of cancerous diseases” value in the series with animal tumor models is “can slow down or even stop the advance of cancerous diseases”. Further, the “Glutathione (GSH), % of the reference value” turned out to be 117.5% in series [3] (2-MTDC 1.2 mmol/kg intraperitoneally, 1 hour after injection); 87.2% in series [3] (2-MTDC 1.2 mmol/kg intraperitoneally, 4 hours after injection); 108.5% in series [3] (setting [4]); 112.0% in series [3] (2-MTDC 1.2 mmol/kg intraperitoneally, 12 hours after injection); 127.6% in series [3] (2-MTDC 2.4 mmol/kg intraperitoneally, 1 hour after injection); 90.3% in series [3] (setting [5]). In addition, the “Glutathione (GSH), % of the reference value” in series [3] (2-MTDC 2.4 mmol/kg intraperitoneally, 8 hours after injection) amounted to 112.0%; in series [3] (2-MTDC 2.4 mmol/kg intraperitoneally, 12 hours after injection), 154.5%. The “Glutathione (GSH), mean ± SD” value in series [3] (setting [4]) was 6.48 ± 0.67 μmol/g wet weight; in series [3] (setting [5]), 5.76 ± 0.42 μmol/g wet weight.
